Measurements: patent US20060069132A1, “Azolecarboxamide herbicides” (priority 2004, published 2006)

Assays:
[1] = tested on: rice; experiment: Test B pre-/postemergence herbicide test; assay type: in vivo, Oryza sativa; conditions: for Rice plant response rating (0 to 100 scale) / Plant response rating, Rice / Plant response rating (0 to 100 scale), Rice: preemergence; for Plant response rating (0 to 100 scale), Rice: 0 is no effect, 100 is complete control
How it was run: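 Test chemicals in a non-phytotoxic solvent mixture with surfactant were applied preemergence to seeded species and postemergence to plants 2-18 cm tall (1- to 4-leaf stage); rice and barnyardgrass were also tested in a flooded paddy at the 2-leaf stage. Visual rating versus controls after 13-15 days in greenhouse, scale 0 (no effect) to 100 (complete control).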

[2] = tested on: large crabgrass; experiment: Test C pre-/postemergence herbicide test; assay type: in vivo, Digitaria sanguinalis
How it was run: (§1)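 Preemergence: seeds planted and treated with compound in non-phytotoxic solvent with surfactant; postemergence: plants at 2 to 18 cm (1- to 4-leaf stage) sprayed likewise. Kept in greenhouse 12 to 14 days, then visually rated against controls, 0 (no effect) to 100 (complete control).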

[3] = tested on: woolly cupgrass; experiment: Test C pre-/postemergence herbicide test; assay type: in vivo, Eriochloa villosa
How it was run: as §1

[4] = tested on: eastern black nightshade; experiment: Test C pre-/postemergence herbicide test; assay type: in vivo, Solanum ptycanthum
How it was run: as §1

[5] = 125 g ai/ha, 0 = no effect, 100 = complete control
[6] = 62 g ai/ha, preemergence, scale 0 to 100
[7] = 125 g ai/ha, scale 0 (no effect) to 100 (complete control), visual, 12 to 14 days, preemergence
[8] = 250 g ai/ha, scale 0-100, preemergence
[9] = 500 g ai/ha, scale 0 to 100 (0 no effect, 100 complete control), visual, 12 to 14 days, preemergence
[10] = Postemergence, 500 g ai/ha, scale 0 to 100
[11] = Postemergence, 250 g ai/ha, scale 0 to 100, 0 no effect, 100 complete control
[12] = postemergence, 125 g ai/ha, scale 0 to 100
[13] = postemergence, 62 g ai/ha, scale 0 to 100
[14] = 500 g ai/ha, visual rating, 0 = no effect, 100 = complete control

Structure (SMILES)	Rice plant response rating (0 to 100 scale) [1, 5]	Plant response rating, Crabgrass, Large [2, 6]	Plant response rating, Crabgrass, Large [2, 7]	Plant response rating, Crabgrass, Large [2, 8]	Plant response rating, Crabgrass, Large [2, 9]	Plant response rating, Cupgrass, Woolly [3, 6]	Plant response rating, Cupgrass, Woolly [3, 7]	Plant response rating, Cupgrass, Woolly [3, 8]	Plant response rating, Cupgrass, Woolly [3, 9]	Plant response rating, Nightshade [4, 6]	Plant response rating, Nightshade [4, 7]	Plant response rating, Nightshade [4, 8]	Plant response rating, Nightshade [4, 9]	Plant response rating, Rice [1, 14]	also measured
CCc1nc(C(C)(C)C)sc1C(=O)Nc1cccc(C(=O)NCC2CC2)c1 [Compound 212]	10	60	80	85	100	0	0	20	30	70	100	100	100		Plant response rating, Rice ([1]; 500 g ai/ha, visual rating 0-100, 0 no effect, 100 complete control): 20; Crabgrass, Large plant response rating [2, 10]: 20; Plant response rating, Crabgrass, Large [2, 11]: 20; Plant response rating, Crabgrass, Large [2, 12]: 10; Plant response rating, Crabgrass, Large [2, 13]: 0; Cupgrass, Woolly plant response rating [3, 10]: 40; Plant response rating, Cupgrass, Woolly [3, 11]: 30; Plant response rating, Cupgrass, Woolly [3, 12]: 5; Plant response rating, Cupgrass, Woolly [3, 13]: 5
CCNC(=O)c1cccc(NC(=O)c2nn(C(C)(C)C)cc2Br)c1 [Compound 221, 4-bromo-1-(1,1-dimethylethyl)-N-[3-[(ethylamino)carbonyl]phenyl]-1H-pyrazole-3-carboxamide]															plant injury at 125 g/ha ([1]; Oryza sativa, pre-emergence, 336 h, 125 g ai/ha, 0 = no effect, 100 = complete control, read-out: Rice plant response rating (0 to 100 scale)): 0%; plant injury at 500 g/ha ([1]; Oryza sativa, pre-emergence, 336 h, 500 g ai/ha, visual rating, 0 = no effect, 100 = complete control, read-out: Plant response rating, Rice): 20%; pest or weed control at 62 g/ha ([2]; Digitaria sanguinalis, pre-emergence, 312 h, 62 g ai/ha, preemergence, scale 0 to 100, read-out: Plant response rating, Crabgrass, Large): 0%; pest or weed control at 125 g/ha ([2]; Digitaria sanguinalis, pre-emergence, 312 h, 125 g ai/ha, scale 0 (no effect) to 100 (complete control), visual, 12 to 14 days, read-out: Plant response rating, Crabgrass, Large): 100%; pest or weed control at 250 g/ha ([2]; Digitaria sanguinalis, pre-emergence, 312 h, 250 g ai/ha, scale 0-100, read-out: Plant response rating, Crabgrass, Large): 100%; pest or weed control at 500 g/ha ([2]; Digitaria sanguinalis, pre-emergence, 312 h, 500 g ai/ha, scale 0 to 100 (0 no effect, 100 complete control), visual, 12 to 14 days, read-out: Plant response rating, Crabgrass, Large): 100%; pest or weed control at 62 g/ha ([3]; Eriochloa villosa, pre-emergence, 312 h, 62 g ai/ha, preemergence, scale 0 to 100, read-out: Plant response rating, Cupgrass, Woolly): 0%; pest or weed control at 125 g/ha ([3]; Eriochloa villosa, pre-emergence, 312 h, 125 g ai/ha, scale 0 (no effect) to 100 (complete control), visual, 12 to 14 days, read-out: Plant response rating, Cupgrass, Woolly): 0%; pest or weed control at 250 g/ha ([3]; Eriochloa villosa, pre-emergence, 312 h, 250 g ai/ha, scale 0-100, read-out: Plant response rating, Cupgrass, Woolly): 0%; pest or weed control at 500 g/ha ([3]; Eriochloa villosa, pre-emergence, 312 h, 500 g ai/ha, scale 0 to 100 (0 no effect, 100 complete control), visual, 12 to 14 days, read-out: Plant response rating, Cupgrass, Woolly): 10%; pest or weed control at 62 g/ha ([4]; pre-emergence, 62 g ai/ha, preemergence, scale 0 to 100, read-out: Plant response rating, Nightshade): 30%; pest or weed control at 125 g/ha ([4]; pre-emergence, 125 g ai/ha, scale 0 (no effect) to 100 (complete control), visual, 12 to 14 days, read-out: Plant response rating, Nightshade): 50%; pest or weed control at 250 g/ha ([4]; pre-emergence, 250 g ai/ha, scale 0-100, read-out: Plant response rating, Nightshade): 70%; pest or weed control at 500 g/ha ([4]; pre-emergence, 500 g ai/ha, scale 0 to 100 (0 no effect, 100 complete control), visual, 12 to 14 days, read-out: Plant response rating, Nightshade): 100%
CCn1nc(C(C)(C)C)cc1C(=O)Nc1cc(C(=O)N(C)OC)ccc1F [Compound 244]	60	100	100	100	100	65	65	85	95	100	100	100	100	80	
CCn1nc(C(C)(C)C)cc1C(=O)Nc1ccc(OC)c(OC)c1 [Compound 298]	40	85	95	100	100	5	10	30	60	100	100	100	100	60	
CCNC(=O)c1ccc(F)c(NC(=O)c2cc(C3(C)CC3)nn2CC)c1 [Compound 300]	40	100	100	100		20	50	60		100	100	100		70	
CCn1nc(C2(C)CC2)cc1C(=O)Nc1cc(C(=O)N2CC=CC2)ccc1F [Compound 301]	10	90	100	100	100	10	50	70	90	90	95	100	100	70	
CCN(CC)C(=O)c1cccc(NC(=O)c2cc(C(C)(C)C)nn2C)n1 [Compound 314]		0	0	40	60	0	0	0	20	60	85	90	100	10	Plant response rating (0 to 100 scale), Rice ([1]; 125 g ai/ha): 0
C=CCNC(=O)c1cccc(NC(=O)c2cc(C(C)(C)C)nn2C)n1 [Compound 318]			50	60	100	0	0	0	10	80	90	95	95	50	Plant response rating (0 to 100 scale), Rice ([1]; 125 g ai/ha): 0; Crabgrass, Large plant response rating [2, 10]: 50; Plant response rating, Crabgrass, Large [2, 11]: 30; Plant response rating, Crabgrass, Large [2, 12]: 0; Plant response rating, Crabgrass, Large [2, 13]: 0; Cupgrass, Woolly plant response rating [3, 10]: 20; Plant response rating, Cupgrass, Woolly [3, 11]: 10; Plant response rating, Cupgrass, Woolly [3, 12]: 0; Plant response rating, Cupgrass, Woolly [3, 13]: 0
